Source: article PMC3901262 (Investigational new drugs, 2013)

Legend:
[1] = Plasma pharmacokinetics of vorinostat and metabolites; type: in vivo, human; conditions: for Cmax / Tmax / AUC (0-infinity) / T1/2 / AUC / Cl/F: plasma; for AUC: Mean AUC
[2] = test system: patients with advanced solid tumors; assay: Phase I dose escalation: toxicity, DLT and MTD; type: in vivo, human
[3] = test system: refractory NSCLC; conditions: single agent; ref [36]; cited from earlier work
[4] = C1D1, vorinostat 400 mg oral alone (single dose)
[5] = C1D2, vorinostat 400 mg oral + bortezomib
[6] = C1D12, vorinostat 400 mg oral steady state, with bortezomib

With `O=C(O)CCC(=O)Nc1ccccc1` [Vorinostat acid, 4-anilino-4-oxobutanoic acid] the “mean baseline plasma concentration” value ([1]; Day 2, before vorinostat dose) was 130 ± 68 ng/mL, the Cmax [1, 4] was 815 ± 282 ng/mL and the Tmax [1, 4] was 2.8 ± 1.4 h.

In the case of `CC(C)C[C@H](NC(=O)[C@H](Cc1ccccc1)NC(=O)c1cnccn1)B(O)O` [bortezomib], the “MTD, bortezomib” value ([2]; IV days 1, 4, 8, 11 of 21-day cycle, with vorinostat 400 mg) is reported as 1.3 mg/m^2.

For `O=C(CCCCCCC(=O)Nc1ccccc1)NO[C@@H]1O[C@H](C(=O)O)[C@@H](O)[C@H](O)[C@H]1O` [Vorinostat glucuronide, vorinostat glucuronide], the “AUC (0-infinity)” value [1, 4] was 4843 ± 3034 ng·h/mL, the Cmax [1, 4] was 1153 ± 922 ng/mL and the T1/2 [1, 4] was 1.9 ± 1.4 h. The Tmax [1, 4] was 1.9 ± 1.0 h, the “AUC (0-infinity)” value [1, 5] was 5283 ± 2915 ng·h/mL and the Cmax [1, 5] was 1225 ± 496 ng/mL. The T1/2 [1, 5] was 1.6 ± 0.5 h, the Tmax [1, 5] was 3.2 ± 1.8 h and the “AUC (0-infinity)” value [1, 6] was 4169 ± 1548 ng·h/mL. The Cmax [1, 6] was 849 ± 479 ng/mL, the T1/2 [1, 6] was 2.0 ± 0.8 h and the Tmax [1, 6] was 2.0 ± 1.0 h.

In the case of `O=C(CCCCCCC(=O)Nc1ccccc1)NO` [vorinostat, suberoylanilide hydroxamic acid], the objective antitumor activity [3] is given as “no objective antitumor activity”, the “AUC and Cmax in individuals experiencing a DLT compared with no DLT” value ([1]; all days of treatment, p < 0.05) is given as “significantly higher” and the “AUC and Cmax on day 12 compared with day 1” value ([1]; cycle 1, steady state vs single dose, p < 0.05) is given as “significantly higher”. The “day 1 compared with day 2 plasma concentrations (influence of bortezomib)” value ([1]; cycle 1, vorinostat alone vs vorinostat + bortezomib) was “no difference”, the Cmax ([1]; human, oral, 400 mg, Cmax, C1D1, patients with DLT (3)) was 551 ± 174 ng/mL and the AUC ([1]; human, oral, 400 mg, C1D1, patients with DLT (3)) was 1450 ± 277 ng·h/mL. For the same molecule, the AUC ([1]; human, oral, 400 mg, C1D1, patients with No DLT (16)) was 999 ± 438 ng·h/mL, the Cmax ([1]; human, oral, Cmax, C1D2, patients with DLT (3)) was 675 ± 363 ng/mL and the Cmax ([1]; human, oral, Cmax, C1D12, patient with DLT (1)) was 905 ng/mL. For the same molecule, the Cmax ([1]; human, oral, Cmax, C1D12, patients with No DLT (13)) was 448 ± 314 ng/mL, the AUC ([1]; human, oral, C1D2, patients with DLT (3)) was 1790 ± 436 ng·h/mL and the AUC ([1]; human, oral, C1D2, patients with No DLT (16)) was 983 ± 418 ng·h/mL. The AUC ([1]; human, oral, C1D12, patient with DLT (1)) was 2230 ng·h/mL, the AUC ([1]; human, oral, C1D12, patients with No DLT (13)) was 1410 ± 962 ng·h/mL and the Cl/F [1, 4] was 6.4 ± 3.2 L/min. For the same molecule, the Cl/F [1, 5] was 11 ± 4.1 L/min, the Cl/F [1, 6] was 13 ± 3.3 L/min and the “MTD, vorinostat” value ([2]; orally daily days 1-14 of 21-day cycle, with bortezomib) was 400 mg.
